In ChEMBL document CHEMBL4483862, “Open-source discovery of chemical leads for next-generation chemoprotective antimalarials” (2018):

Test system: Plasmodium berghei
Assay: Luciferase/luciferin-expressing antifolate-resistant parasites were used to infect a culture of HepG2 cells that were pre-incubated with compounds. Infected hepatocytes emit light due to the luciferase reaction. Assay results are presented as the percent inhibition of light emission compared to control. […]
Assay type: functional
Settings: sporozoite; for IC90: read-out: LUCIFERASE INFECTION ASSAY - IC90

| SMILES | IC90 [µM] | further results |
| --- | --- | --- |
| COc1ccc(Nc2nc(S(=O)(=O)c3ccc(C)cc3)c(Cl)s2)cc1 | > 10 | IC50 (HEPG2TOX_HILL_SLOPE 11.4, HEPG2TOX_R_SQUARED 0.576, read-out: LUCIFERASE INFECTION ASSAY - IC50): > 10 µM |
| Cc1nc(Sc2nnnn2C)c2c3c(sc2n1)CCC3 | 4.17 | IC50 (HEPG2TOX_HILL_SLOPE 11.4, HEPG2TOX_R_SQUARED 0.852, PBLUC_HILL_SLOPE 13, PBLUC_R_SQUARED 0.536, read-out: LUCIFERASE INFECTION ASSAY - IC50): 3.52 µM |
| Clc1ccc2c(NC3CCN(Cc4ccccc4)CC3)ccnc2c1 | 8.05 | IC50 (HEPG2TOX_HILL_SLOPE 11.4, HEPG2TOX_R_SQUARED 0.805, PBLUC_HILL_SLOPE 13.2, 4.09, PBLUC_R_SQUARED 0.263, 0.797, read-out: LUCIFERASE INFECTION ASSAY - IC50): 5.96 µM |
| CC(=O)O[C@]1(C(C)=O)CCC2C3C[C@H](C)C4=CC(=O)CCC4(C)C3CCC21C (some centres undefined) | > 8.54 | IC50 (HEPG2TOX_HILL_SLOPE 11.5, HEPG2TOX_R_SQUARED 0.0757, read-out: LUCIFERASE INFECTION ASSAY - IC50): > 8.54 µM |
| CN(CC(=O)Nc1cccc(F)c1)C(=O)c1csc(COc2ccc(Cl)cc2)n1 | 6.38 | IC50 (HEPG2TOX_HILL_SLOPE 11.6, HEPG2TOX_R_SQUARED 0.266, PBLUC_HILL_SLOPE 151, PBLUC_R_SQUARED 0.192, read-out: LUCIFERASE INFECTION ASSAY - IC50): 6.29 µM |
| FC(F)(F)c1cc(Nc2nc(C(F)(F)F)cs2)cc(C(F)(F)F)c1 | 3.63 | IC50 (HEPG2TOX_HILL_SLOPE 11.5, HEPG2TOX_R_SQUARED 0.969, PBLUC_HILL_SLOPE 12.1, PBLUC_R_SQUARED 0.577, read-out: LUCIFERASE INFECTION ASSAY - IC50): 3.03 µM |
| COc1ccc(C(=O)/C=C/c2cccc(C#N)c2)cc1CN1CCCC1 | > 10 | IC50 (HEPG2TOX_HILL_SLOPE 11.5, HEPG2TOX_R_SQUARED 0.623, read-out: LUCIFERASE INFECTION ASSAY - IC50): > 10 µM |
| CCOC(=O)c1ccsc1NC(=O)CNc1ccc(Br)cc1 | > 10 | IC50 (HEPG2TOX_HILL_SLOPE 11.3, HEPG2TOX_R_SQUARED 0.575, read-out: LUCIFERASE INFECTION ASSAY - IC50): > 10 µM |
| COC(=O)c1c(NC(=O)c2cccnc2)c2cc(NCc3ccco3)cnc2n1Cc1ccccc1 | > 6.85 | IC50 (HEPG2TOX_HILL_SLOPE 11.5, HEPG2TOX_R_SQUARED 0.854, PBLUC_HILL_SLOPE 4.03, PBLUC_R_SQUARED 0.534, read-out: LUCIFERASE INFECTION ASSAY - IC50): 4.51 µM |
| O=C(Nc1cccc(Cl)c1)Nc1ccc2nc(-c3ccc(F)c(Cl)c3)nn2c1 | 7.37 | IC50 (HEPG2TOX_HILL_SLOPE 11.5, HEPG2TOX_R_SQUARED 0.414, PBLUC_HILL_SLOPE 109, PBLUC_R_SQUARED 0.131, read-out: LUCIFERASE INFECTION ASSAY - IC50): 7.23 µM |
| Cc1ccccc1NC(=S)N/N=C/c1ccccc1[N+](=O)[O-] | 3.66 | IC50 (HEPG2TOX_HILL_SLOPE 11.4, HEPG2TOX_R_SQUARED 0.668, PBLUC_HILL_SLOPE 15.4, PBLUC_R_SQUARED 0.358, read-out: LUCIFERASE INFECTION ASSAY - IC50): 3.17 µM |
| Cc1nn(-c2cccc(Cl)c2)c2nc(-c3ccccc3)c(-c3nc4ccccc4s3)c(-c3cccnc3)c12 | > 10 | IC50 (HEPG2TOX_HILL_SLOPE 11.2, HEPG2TOX_R_SQUARED 0.958, read-out: LUCIFERASE INFECTION ASSAY - IC50): > 10 µM |
| CC(=O)c1cccc(-c2cc3c(cn2)nc(NCc2ccccc2F)n3C)c1 | > 10 | IC50 (HEPG2TOX_HILL_SLOPE 11.4, HEPG2TOX_R_SQUARED 0.658, PBLUC_HILL_SLOPE 2.4, PBLUC_R_SQUARED 0.114, read-out: LUCIFERASE INFECTION ASSAY - IC50): 6.65 µM |
| CC(C)CC(N)c1csc(Nc2nncc3ccccc23)n1 (centres undefined) | 4.43 | IC50 (HEPG2TOX_HILL_SLOPE 11.3, HEPG2TOX_R_SQUARED 0.262, PBLUC_HILL_SLOPE 9.28, PBLUC_R_SQUARED 0.498, read-out: LUCIFERASE INFECTION ASSAY - IC50): 3.5 µM |
| COc1cc(-c2cc(-c3cc(C)c(O)c(C)c3)cnc2N)ccc1O | 3.93 | IC50 (HEPG2TOX_HILL_SLOPE 11.4, HEPG2TOX_R_SQUARED 0.062, PBLUC_HILL_SLOPE 8, PBLUC_R_SQUARED 0.677, read-out: LUCIFERASE INFECTION ASSAY - IC50): 2.99 µM |
| COc1ccc(C(C)C)cc1-c1cnc(N)c(-c2ccc(F)c(Cl)c2)c1 | > 8.9 | IC50 (HEPG2TOX_HILL_SLOPE 11.3, HEPG2TOX_R_SQUARED 0.599, PBLUC_HILL_SLOPE 2.08, PBLUC_R_SQUARED 0.63, read-out: LUCIFERASE INFECTION ASSAY - IC50): 3.98 µM |

| SMILES | IC90 [µM] | further results |
| --- | --- | --- |
| CCn1c(NC(=O)c2c(C)nn(-c3ccccc3)c2C)nc2ccccc21 | 9.89 | IC50 (HEPG2TOX_HILL_SLOPE 11.2, HEPG2TOX_R_SQUARED 0.651, PBLUC_HILL_SLOPE 20.8, PBLUC_R_SQUARED 0.508, read-out: LUCIFERASE INFECTION ASSAY - IC50): 8.9 µM |
| CC(NC(=O)c1cnn(-c2ccc(C(F)(F)F)cn2)c1C(F)(F)F)C1CC2CCC1C2 (centres undefined) | 5.3 | IC50 (HEPG2TOX_HILL_SLOPE 11.2, HEPG2TOX_R_SQUARED 0.292, PBLUC_HILL_SLOPE 7.94, PBLUC_R_SQUARED 0.51, read-out: LUCIFERASE INFECTION ASSAY - IC50): 4.02 µM |
| Cc1nnc(Sc2ncnc3scc(-c4ccccc4)c23)s1 | 6.88 | IC50 (HEPG2TOX_HILL_SLOPE 11.3, HEPG2TOX_R_SQUARED 0.507, PBLUC_HILL_SLOPE 5.22, PBLUC_R_SQUARED 0.122, read-out: LUCIFERASE INFECTION ASSAY - IC50): 4.52 µM |
| COc1ccc(-c2cncc(-c3ccc(O)c(OC)c3)n2)cc1 | 0.463 | IC50 (HEPG2TOX_HILL_SLOPE 11.5, HEPG2TOX_R_SQUARED 0.964, PBLUC_HILL_SLOPE 4.2, PBLUC_R_SQUARED 0.828, read-out: LUCIFERASE INFECTION ASSAY - IC50): 0.274 µM |
| CC(=O)Oc1ccc(-c2ccc(C(=O)OCC(=O)Nc3sccc3C(N)=O)cc2)cc1 | > 10 | IC50 (HEPG2TOX_HILL_SLOPE 11.3, HEPG2TOX_R_SQUARED 0.976, PBLUC_HILL_SLOPE 2.77, PBLUC_R_SQUARED 0.661, read-out: LUCIFERASE INFECTION ASSAY - IC50): 5.01 µM |
| FC(F)(F)Oc1ccc(-c2cnc3ccc(NCc4ccccn4)nn23)cc1 | 1.24 | IC50 (HEPG2TOX_HILL_SLOPE 11.3, HEPG2TOX_R_SQUARED 0.834, PBLUC_HILL_SLOPE 11.1, PBLUC_R_SQUARED 0.439, read-out: LUCIFERASE INFECTION ASSAY - IC50): 1.02 µM |
| Cc1cc(C(C)(C)C)cc(C)c1N1C(=O)C=CC1=O | > 12.8 | IC50 (HEPG2TOX_HILL_SLOPE 11.2, HEPG2TOX_R_SQUARED 0.888, PBLUC_HILL_SLOPE 4.45, PBLUC_R_SQUARED 0.621, read-out: LUCIFERASE INFECTION ASSAY - IC50): 8.96 µM |
| O=[N+]([O-])c1cc(-c2nc(-c3cc(C(F)(F)F)cc(C(F)(F)F)c3)no2)cs1 | > 8.06 | IC50 (HEPG2TOX_HILL_SLOPE 11.5, HEPG2TOX_R_SQUARED 0.674, read-out: LUCIFERASE INFECTION ASSAY - IC50): > 8.06 µM |
| CCN1CCC[C@H]1CNC(=O)C(C)c1ccc2c(c1)[nH]c1ccc(Cl)cc12 (some centres undefined) | 5.54 | IC50 (HEPG2TOX_HILL_SLOPE 11.5, HEPG2TOX_R_SQUARED 0.93, PBLUC_HILL_SLOPE 6.18, PBLUC_R_SQUARED 0.807, read-out: LUCIFERASE INFECTION ASSAY - IC50): 3.88 µM |
| Cc1cc(Nc2ccc3c(=O)c(-c4c(F)cccc4Cl)c(C)oc3c2)no1 | > 10 | IC50 (HEPG2TOX_HILL_SLOPE 11.5, HEPG2TOX_R_SQUARED 0.0504, PBLUC_HILL_SLOPE 0.784, PBLUC_R_SQUARED 0.684, read-out: LUCIFERASE INFECTION ASSAY - IC50): 1.11 µM |
| O=C(COc1ccccc1C(=O)Nc1nc(-c2ccccc2)cs1)Nc1cccc(C(F)(F)F)c1 | 5.93 | IC50 (HEPG2TOX_HILL_SLOPE 11.2, HEPG2TOX_R_SQUARED 0.982, PBLUC_HILL_SLOPE 4.71, PBLUC_R_SQUARED 0.747, read-out: LUCIFERASE INFECTION ASSAY - IC50): 3.72 µM |
| O=C(Nc1ccc(-c2nc3ccccc3[nH]2)cc1)c1ccc2c(=O)n3c(nc2c1)CCCCCC3 | 4.15 | IC50 (HEPG2TOX_HILL_SLOPE 11.2, HEPG2TOX_R_SQUARED 0.937, PBLUC_HILL_SLOPE 12.6, PBLUC_R_SQUARED 0.815, read-out: LUCIFERASE INFECTION ASSAY - IC50): 3.48 µM |
| O=[N+]([O-])c1ccc(-c2nnc(SCc3c(Cl)cccc3Cl)o2)o1 | 8.84 | IC50 (HEPG2TOX_HILL_SLOPE 11.4, HEPG2TOX_R_SQUARED 0.952, PBLUC_HILL_SLOPE 3.38, PBLUC_R_SQUARED 0.564, read-out: LUCIFERASE INFECTION ASSAY - IC50): 4.61 µM |
| NC(=O)NC(CC(=O)Nc1ccc2c(c1)-c1ccccc1C2)c1ccccc1 (centres undefined) | > 10 | IC50 (HEPG2TOX_HILL_SLOPE 11.3, HEPG2TOX_R_SQUARED 0.75, PBLUC_HILL_SLOPE 2.98, PBLUC_R_SQUARED 0.106, read-out: LUCIFERASE INFECTION ASSAY - IC50): 6.7 µM |
| Cc1ccc(NC(=S)NC2CCCCCCCCCCC2)cc1Cl | 8.43 | IC50 (HEPG2TOX_HILL_SLOPE 11.3, HEPG2TOX_R_SQUARED 0.761, PBLUC_HILL_SLOPE 19.1, PBLUC_R_SQUARED 0.333, read-out: LUCIFERASE INFECTION ASSAY - IC50): 7.51 µM |
| O=C(Nc1ccc(SC(F)(F)F)cc1)Nc1cccnc1N1CCC(C(F)(F)F)CC1 | 2.33 | IC50 (HEPG2TOX_HILL_SLOPE 11.5, HEPG2TOX_R_SQUARED 0.688, PBLUC_HILL_SLOPE 15.9, PBLUC_R_SQUARED 0.276, read-out: LUCIFERASE INFECTION ASSAY - IC50): 2.03 µM |
